Key:
Format in all cases: in vivo, mouse
G1H-G93A transgenic mice [1] = assay: Histopathological study: number of spinal cord anterior horn cells; conditions: end stage, 5 mg/kg oral daily from 80th day after birth (before onset)
Description: The mouse supplied to the experiment is anesthetized by intraperitoneal injection of pentobarbital sodium in an amount of 1 mL per kg of the mouse body weight. After confirming that the mouse is completely under anesthesia, laparotomy and thoracotomy are performed, and blood is completely removed from the visceral organs of the whole body by perfusion of physiological saline at 37° C. via the left ventricle and aorta. The complete removal of blood from the visceral organs of the whole body is carried out by confirming complete removal of the blood of the aorta in the thoracic part and abdominal part, mesenteric arteries, liver, kidneys, and small arteries on the surfaces of the stomach, small intestine and large intestine under direct visual inspection. Subsequently, perfusion of 50 mL of physiological saline at 37° C. is performed. Immediately thereafter, the perfusion is performed with a fixative (4% paraformaldehyde supplemented with 0.1 M cacodylate buffer, pH 7.4). The spinal cord is removed and re-fixed with the same fixative for 18 hours. After the fixation of spinal cord tissue, each spinal cord segments is cut out to examine the spinal cord tissue. For the detailed analyses of spinal cord tissues, two segments of the cervical spinal cord (upper and lower cervical segments), three segments of the thoracic spinal cord (upper, middle, and lower thoracic segments), and two segments of lumbar spinal cord (upper and lower lumbar segments) were cut out to provide seven segments in total. Each spinal cord segments are respectively embedded in paraffin to produce paraffin blocks, and then cut into paraffin sections having a thickness of 5 μm using a microtome. The paraffin sections are subjected to hematoxylin and eosin (HE) staining.
For a quantitative analysis, serial 25 paraffin sections having a thickness of 5 μm were produced in series from the respective segment paraffin blocks of the spinal cord, and the 1st section, 7th section, 13th section, 19th section and 25th section were selected and subjected to HE staining. Specifically, paraffin sections were selected such that one paraffin section was taken at a […], and 5 HE preparations were produced from a single spinal cord segments. Therefore, 10 HE preparations from two areas for the entire cervical spinal cord, 15 HE preparations from three areas for the entire thoracic spinal cord, and 10 HE preparations from two areas for the entire lumbar spinal cord, were produced.
In order to calculate the number of motor neurons in the anterior horn, all of the HE stained sections were observed under a light microscope (BX41: Olympus Corp., Tokyo, Japan) equipped with a 3CCD digital color camera system for the microscope (FX380: Olympus Corp., Tokyo, Japan). Subsequently, photographs of the anterior horn region (corresponding to VII, VIII and IX Rexed areas) in the HE stained sections of the respective myelomere tissues of the spinal cord were taken, and the images were analyzed using an image analysis-filing software (FLVFS-LS Ver. 1.12: Olympus Corp., Tokyo, Japan). In regard to the definition of the motor neuron in the anterior horn of spinal cord (spinal cord anterior horn cells), cells in the HE stained sections, which have a nucleus carrying a definite nucleolus and contain a cell body having a diameter of 25 μm or more, were selected as the spinal cord anterior horn cells (Klivenyi P, et al., Nature Med 1999; 5:347-351, Kong J & Xu Z, J Neurosci 1998; 18:3241-3250, and Stephens B, et al., Neuropathol Appl Neurobiol 2001; 27:352-361). Based on this definition, the number of spinal cord anterior horn cells was counted for each of the HE stained sections. The respective numbers of spinal cord anterior horn cells in the cervical spinal cord, thoracic spinal cord and lumbar spinal cord of one mouse was calculated from the total number of spinal cord anterior horn cells in five HE stained sections. […]

G1H-G93A transgenic mice [2] = assay: Exercise tolerance test: footprint test; conditions: 5 mg/kg oral daily from 80th day (before onset), score 0-4
Description: (§1) The following five kinds of exercise tolerance tests were conducted every fifth day from the 70th day after birth to evaluate the ability to exercise in the respective exercise tolerance tests. That is, the days for the exercise tolerance tests were every fifth days, such as the 70th day, 75th day, 80th day, 85th day and so on, after birth. The exercise tolerance tests were conducted throughout the survival period, and the post-mortem evaluation was based on the definitions of the following five kinds of exercise tolerance tests.
Both hindlimbs of a mouse are dipped in a black ink bottle, and then the mouse is allowed to walk on white paper. The footprints of the two hindlimbs of the mouse after the walking are analyzed. […] The post-mortem evaluation of the footprint test is defined as score 4.

G1H-G93A transgenic mice [3] = assay: Exercise tolerance test: beam balance test; conditions: 5 mg/kg oral daily from 80th day (before onset), score 0-2
Description: as §1
The apparatus used in the beam balance test is constructed by maintaining a wooden beam having a diameter of 1.5 cm horizontally, and installing platforms which serve as footholds, on the respective sides in a distance of 30 cm. A mouse is placed on the platform on one side, and the time taken by the mouse to cross over the beam which is 30 cm in length and to arrive at the platform on the opposite side is measured. The evaluation of the beam balance test for the mouse was performed based on the following criteria: Score 0=The time is 10 seconds or less; Score 1=The time is more than 10 seconds to 15 seconds; and Score 2=The time is more than 15 seconds, or the mouse falls down. The post-mortem evaluation of the beam balance test is defined as score 2.

[4] = per five HE sections, average±SD

Cc1nc(-c2ccc(OCC(C)C)c(C#N)c2)sc1C(=O)O [compound (c), 2-[3-cyano-4-(2-methylpropoxy)phenyl]-4-methyl-5-thiazolecarboxylic acid]
difference to placebo group in number of spinal cord anterior horn cells (cervical, thoracic or lumbar segment) (G1H-G93A transgenic mice [1]; P>0.05, Mann-Whitney's U test): no significant difference | number of spinal cord anterior horn cells in the cervical segment (G1H-G93A transgenic mice [1]; [4]): 5.2±4.3 | number of spinal cord anterior horn cells in the lumbar segment (G1H-G93A transgenic mice [1]; [4]): 4.1±3.8 | number of spinal cord anterior horn cells in the thoracic segment (G1H-G93A transgenic mice [1]; [4]): 1.6±1.7 | Footprint test score (G1H-G93A transgenic mice [2]; 70th day after birth): 0.0±0.0 | Footprint test score (G1H-G93A transgenic mice [2]; 75th day after birth): 0.0±0.0 | Footprint test score (G1H-G93A transgenic mice [2]; 80th day after birth): 0.0±0.0 | Footprint test score (G1H-G93A transgenic mice [2]; 85th day after birth): 0.0±0.0 | Footprint test score (G1H-G93A transgenic mice [2]; 90th day after birth): 0.0±0.0 | Footprint test score (G1H-G93A transgenic mice [2]; 95th day after birth): 0.0±0.0 | Footprint test score (G1H-G93A transgenic mice [2]; 100th day after birth): 0.0±0.0 | Footprint test score (G1H-G93A transgenic mice [2]; 105th day after birth): 0.0±0.0 | Footprint test score (G1H-G93A transgenic mice [2]; 110th day after birth): 0.1±0.3 | Footprint test score (G1H-G93A transgenic mice [2]; 115th day after birth): 0.7±0.8 | Footprint test score (G1H-G93A transgenic mice [2]; 120th day after birth): 1.6±1.0 | Footprint test score (G1H-G93A transgenic mice [2]; 125th day after birth): 2.7±0.5 | Footprint test score (G1H-G93A transgenic mice [2]; 130th day after birth): 3.3±0.5 | Footprint test score (G1H-G93A transgenic mice [2]; 135th day after birth): 3.9±0.3 | Footprint test score (G1H-G93A transgenic mice [2]; 140th day after birth): 4.0±0.0 | Beam balance test score (G1H-G93A transgenic mice [3]; 70th day after birth, 5 mg/kg): 0.0±0.0 | Beam balance test score (G1H-G93A transgenic mice [3]; 75th day after birth, 5 mg/kg): 0.0±0.0 | Beam balance test score (G1H-G93A transgenic mice [3]; 80th day after birth, 5 mg/kg): 0.0±0.0 | Beam balance test score (G1H-G93A transgenic mice [3]; 85th day after birth, 5 mg/kg): 0.0±0.0 | Beam balance test score (G1H-G93A transgenic mice [3]; 90th day after birth, 5 mg/kg): 0.0±0.0 | Beam balance test score (G1H-G93A transgenic mice [3]; 95th day after birth, 5 mg/kg): 0.0±0.0 | Beam balance test score (G1H-G93A transgenic mice [3]; 100th day after birth, 5 mg/kg): 0.0±0.0 | Beam balance test score (G1H-G93A transgenic mice [3]; 105th day after birth, 5 mg/kg): 0.0±0.0 | Beam balance test score (G1H-G93A transgenic mice [3]; 110th day after birth, 5 mg/kg): 0.1±0.3 | Beam balance test score (G1H-G93A transgenic mice [3]; 115th day after birth, 5 mg/kg): 0.7±0.8 | Beam balance test score (G1H-G93A transgenic mice [3]; 120th day after birth, 5 mg/kg): 1.4±0.7 | Beam balance test score (G1H-G93A transgenic mice [3]; 125th day after birth): 2.0 ± 0.0 | Beam balance test score (G1H-G93A transgenic mice [3]; 130th day after birth): 2.0 ± 0.0 | Beam balance test score (G1H-G93A transgenic mice [3]; 135th day after birth): 2.0 ± 0.0 | Beam balance test score (G1H-G93A transgenic mice [3]; 140th day after birth): 2.0 ± 0.0 | Beam balance test score (G1H-G93A transgenic mice [3]; from the 125th day to 140th day after birth): 2.0±0.0

— patent US8318792B2, “Therapeutic agent for amyotrophic lateral sclerosis” (Nippon Medical School Foundation, priority 2006, dated 2012)
